Earlier results in US9522161B2, “Performance enhancing composition and method of delivering nutrients” (Advanced Bio Development, Inc., priority 2010, dated 2016).
Entries after “also recorded” stand apart in the source; their conditions may differ. Blank lines part the entries; values can stand above or below the compound they belong to.

Assays:
[1] = taken orally
[2] = pilot studies and human trials
[3] = not given; remark: listed apart in the source
[4] = not given; remark: listed apart in the source
[5] = system: mice that have a hypoinsulinemic type of diabetes; settings: mice with hypoinsulinemic type of diabetes
[6] = consumed orally, within two hours
[7] = not given; remark: listed apart in the source
muscle = settings: ribose supplementation in rats, depending on muscle fiber type
[8] = humans, chronic high-intensity exercise, ribose supplementation

SMILES: Nc1ncnc2c1ncn2[C@@H]1O[C@H](COP(=O)(O)OP(=O)([O-])OP(=O)([O-])O)[C@@H](O)[C@H]1O.[Na+].[Na+] [ATP disodium, adenosine triphosphate (ATP) disodium]
- duration of measurable increase in circulating ATP levels [1]: at least six
- adverse side effects [2]: no adverse side effects have been observed

SMILES: Cn1c(=O)c2c(ncn2C)n(C)c1=O [Caffeine]
- time until elevated levels appear in the bloodstream (after consumption): 15 to 45 min
- time of peak concentrations post ingestion (post ingestion): one
- decrease of circulating concentrations (within three to six hours of consumption): 50 to 75%

SMILES: COC1=C(OC)C(=O)C(C/C=C(\C)CC/C=C(\C)CC/C=C(\C)CC/C=C(\C)CC/C=C(\C)CC/C=C(\C)CC/C=C(\C)CC/C=C(\C)CC/C=C(\C)CCC=C(C)C)=C(C)C1=O [CoQ10, Coenzyme Q10]
- increase in plasma concentrations ([3]; dosages of 90 to 150 mg/day): 180%
- uptake of CoQ10 into the blood, share of the dose administered ([3]; in vivo): 5 to 10%
- safety in cardiovascular-related clinical trials ([4]; 2,152 patients, 100 to 200 mg per day): safe, without any reports of toxicity or drug interactions
- share of users with gastrointestinal side effects ([4]; nausea, vomiting, diarrhea, appetite suppression, heartburn, epigastric discomfort): Less than one
- dosing level shown to be safe and well tolerated ([4]; over 8 months): ≤ 3,000 mg per day

SMILES: CO[C@H]1[C@H](O)[C@@H](O)[C@@H](O)[C@H](O)[C@@H]1O [D-pinitol]
- insulin-like effect [5]: acute and chronic insulin-like effect

SMILES: CO[C@H]1[C@H](O)[C@@H](O)[C@@H](O)[C@H](O)[C@@H]1O [Pinitol]
- stimulation of glucose uptake in muscle cells (muscle cells): 25-80%

- fraction of ribose absorbed in the intestines [6]: 88-100%
- ribose level that can be safely ingested ([7]; in vivo): ≤ 15 g per day
SMILES: O=C[C@H](O)[C@H](O)[C@H](O)CO [Ribose]
- known side effects ([7]; doses of 10 grams or more on an empty stomach): transient hypoglycemia; also recorded: gastrointestinal discomfort, including loose stools and diarrhea
- increase in hypoxanthine salvage (muscle): six- to eight-fold
- increase in nucleotide salvage (muscle): three- to six-fold
- time to return TAN and ATP levels to baseline [8]: 65 to 72 h
